Assay results: US9073855B2, “BCL-2 selective apoptosis-inducing agents for the treatment of cancer and immune diseases” (AbbVie Inc., priority 2008, dated 2015)

What was measured:
GST-Bcl-2 = GST-Bcl-2 (Homo sapiens, UniProt P10415); assay: TR-FRET binding assay, GST-Bcl-2 with F-Bak peptide probe; settings: TR-FRET Binding Affinity, GST-Bcl-2, F-Bak peptide probe
Summary of the method: (§1)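 Compounds were serially diluted in DMSO from a 50 μM starting solution (2× the starting concentration; 10% DMSO). Plates were incubated for 3 h at room temperature, and TR-FRET was read with 340/35 nm excitation and emission at 520/525 nm (F-Bak) and 495/510 nm (Tb antibody). Ki values were calculated using Wang's competitive-binding equation.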

FL5.12/Bcl-2 cells = assay: FL5.12/Bcl-2 cell viability assay under IL-3 withdrawal (CellTitre Glo); type: cell-based, murine; settings: Mus musculus, IL-3 withdrawn 48 hrs, then 24 hrs with compound
Summary of the method: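 Bcl-2-overexpressing murine FL5.12 transfectants underwent IL-3 removal for 48 hrs before a 24 hr compound treatment. Cell viability was quantified with CellTitre Glo.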

GST-Bcl-XL = GST-Bcl-XL (Homo sapiens, UniProt Q07817); assay: TR-FRET binding assay, GST-Bcl-XL with F-Bak peptide probe; settings: TR-FRET Binding Affinity, GST-Bcl-XL, F-Bak peptide probe
Summary of the method: as §1

GST-Bcl-XL, sequence (Q07817 whole entry): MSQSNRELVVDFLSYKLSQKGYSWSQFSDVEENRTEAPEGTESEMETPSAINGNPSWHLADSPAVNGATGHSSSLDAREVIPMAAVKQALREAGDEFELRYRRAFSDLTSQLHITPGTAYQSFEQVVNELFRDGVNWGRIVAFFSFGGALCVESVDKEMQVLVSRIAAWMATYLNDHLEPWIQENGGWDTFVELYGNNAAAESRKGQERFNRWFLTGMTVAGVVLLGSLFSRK
GST-Bcl-2, sequence (P10415 whole entry): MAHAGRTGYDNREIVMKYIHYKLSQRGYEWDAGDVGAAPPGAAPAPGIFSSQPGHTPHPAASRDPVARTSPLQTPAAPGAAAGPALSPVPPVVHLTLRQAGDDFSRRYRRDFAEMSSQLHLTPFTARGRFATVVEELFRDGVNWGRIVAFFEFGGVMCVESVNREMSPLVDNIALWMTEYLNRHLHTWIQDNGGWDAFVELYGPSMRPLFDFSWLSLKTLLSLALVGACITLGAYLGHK

Structure (SMILES)	Ki (GST-Bcl-2) [nM]	EC50 (FL5.12/Bcl-2 cells) [nM]	Ki (GST-Bcl-XL) [nM]
COCCOCCSc1ccc(S(=O)(=O)NC(=O)c2ccc(N3CCN(CC4=C(c5ccc(Cl)cc5)CC(C)(C)CC4)CC3)cc2Oc2cccc3[nH]ccc23)cc1[N+](=O)[O-] [Example 381, 4-(4-{[2-(4-chlorophenyl)-4,4-dimethylcyclohex-1-en-1-yl]methyl}piperazin-1-yl)-2-(1H-indol-4-yloxy)-N-[(4-{[2-(2-methoxyethoxy)ethyl]thio}-3-nitrophenyl)sulfonyl]benzamide]	0.054	71.8	24.2
COCCNc1ccc(S(=O)(=O)NC(=O)c2ccc(N3CCN(CC4=C(c5ccc(Cl)cc5)CC(C)(C)CC4)CC3)cc2Oc2cccc3[nH]ccc23)cc1[N+](=O)[O-] [Example 239, 4-(4-{[2-(4-chlorophenyl)-4,4-dimethylcyclohex-1-en-1-yl]methyl}piperazin-1-yl)-2-(1H-indol-4-yloxy)-N-({4-[(2-methoxyethyl)amino]-3-nitrophenyl}sulfonyl)benzamide]	0.252	17.6	108
CN1CCC(O)(CCNc2ccc(S(=O)(=O)NC(=O)c3ccc(N4CCN(CC5=C(c6ccc(Cl)cc6)CC(C)(C)CC5)CC4)cc3Oc3ccc4[nH]ccc4c3)cc2[N+](=O)[O-])CC1 [Example 211, 4-(4-{[2-(4-chlorophenyl)-4,4-dimethylcyclohex-1-en-1-yl]methyl}piperazin-1-yl)-N-[(4-{[2-(4-hydroxy-1-methylpiperidin-4-yl)ethyl]amino}-3-nitrophenyl)sulfonyl]-2-(1H-indol-5-yloxy)benzamide]	0.009	17.1	5.61
CC1(C)CCC(CN2CCN(c3ccc(C(=O)NS(=O)(=O)c4ccc(NCCCN5CCCC5=O)c([N+](=O)[O-])c4)c(Oc4ccc5[nH]ccc5c4)c3)CC2)=C(c2ccc(Cl)cc2)C1 [Example 374, 4-(4-{[2-(4-chlorophenyl)-4,4-dimethylcyclohex-1-en-1-yl]methyl}piperazin-1-yl)-2-(1H-indol-5-yloxy)-N-[(3-nitro-4-{[3-(2-oxopyrrolidin-1-yl)propyl]amino}phenyl)sulfonyl]benzamide]	2.27	> 500	> 660
CC1(C)CCC(CN2CCN(c3ccc(C(=O)NS(=O)(=O)c4ccc(OCC5CCOC(C)(C)C5)c([N+](=O)[O-])c4)c(Oc4ccc5[nH]ccc5c4)c3)CC2)=C(c2ccc(Cl)cc2)C1 (stereo not drawn) [Example 384, 4-(4-{[2-(4-chlorophenyl)-4,4-dimethylcyclohex-1-en-1-yl]methyl}piperazin-1-yl)-N-({4-[(2,2-dimethyltetrahydro-2H-pyran-4-yl)methoxy]-3-nitrophenyl}sulfonyl)-2-(1H-indol-5-yloxy)benzamide]	0.076	101	> 660
CC1(C)CCC(CN2CCN(c3ccc(C(=O)NS(=O)(=O)c4ccc(CCC5OCCO5)c([N+](=O)[O-])c4)c(Oc4ccc5[nH]ccc5c4)c3)CC2)=C(c2ccc(Cl)cc2)C1 [Example 278, 4-(4-{[2-(4-chlorophenyl)-4,4-dimethylcyclohex-1-en-1-yl]methyl}piperazin-1-yl)-N-({4-[2-(1,3-dioxolan-2-yl)ethyl]-3-nitrophenyl}sulfonyl)-2-(1H-indol-5-yloxy)benzamide]	0.71	153	> 660
CC(C)(C)c1ccc(CN2CCN(c3ccc(C(=O)NS(=O)(=O)c4ccc(NCC5CCOCC5)c([N+](=O)[O-])c4)c(Oc4ccc5[nH]ccc5c4)c3)CC2)c(-c2ccc(Cl)cc2)c1 [Example 341, 4-{4-[(5-tert-butyl-4′-chloro-1,1′-biphenyl-2-yl)methyl]piperazin-1-yl}-2-(1H-indol-5-yloxy)-N-({3-nitro-4-[(tetrahydro-2H-pyran-4-ylmethyl)amino]phenyl}sulfonyl)benzamide]	13	> 500	> 660
CC(c1ccccc1-c1ccc(Cl)cc1)N1CCN(c2ccc(C(=O)NS(=O)(=O)c3ccc(NC4CCN(C)CC4)c([N+](=O)[O-])c3)c(Oc3cccc4[nH]ccc34)c2)CC1 (stereo not drawn) [Example 206, 4-{4-[1-(4′-chloro-1,1′-biphenyl-2-yl)ethyl]piperazin-1-yl}-2-(1H-indol-4-yloxy)-N-({4-[(1-methylpiperidin-4-yl)amino]-3-nitrophenyl}sulfonyl)benzamide]	0.083	5.01	> 660
CC1(C)CCC(CN2CCN(c3ccc(C(=O)NS(=O)(=O)c4cnc(OCC5CCOCC5)c(C#N)c4)c(Oc4cccc5[nH]ccc45)c3)CC2)=C(c2ccc(Cl)cc2)C1 [Example 386, 4-(4-{[2-(4-chlorophenyl)-4,4-dimethylcyclohex-1-en-1-yl]methyl}piperazin-1-yl)-N-{[5-cyano-6-(tetrahydro-2H-pyran-4-ylmethoxy)pyridin-3-yl]sulfonyl}-2-(1H-indol-4-yloxy)benzamide]	0.239	154	118
CC1(C)CCC(CN2CCN(c3ccc(C(=O)NS(=O)(=O)c4ccc(NC5CCS(=O)(=O)C5)c([N+](=O)[O-])c4)c(Oc4ccc5[nH]ccc5c4)c3)CC2)=C(c2ccc(Cl)cc2)C1 (stereo not drawn) [Example 276, 4-(4-{[2-(4-chlorophenyl)-4,4-dimethylcyclohex-1-en-1-yl]methyl}piperazin-1-yl)-N-({4-[(1,1-dioxidotetrahydrothien-3-yl)amino]-3-nitrophenyl}sulfonyl)-2-(1H-indol-5-yloxy)benzamide]	0.144	62.2	381
CC1(C)CCC(CN2CCN(c3ccc(C(=O)NS(=O)(=O)c4ccc(NCC5CCS(=O)(=O)C5)c([N+](=O)[O-])c4)c(Oc4ccc5[nH]ccc5c4)c3)CC2)=C(c2ccc(Cl)cc2)C1 (stereo not drawn) [Example 275, 4-(4-{[2-(4-chlorophenyl)-4,4-dimethylcyclohex-1-en-1-yl]methyl}piperazin-1-yl)-N-[(4-{[(1,1-dioxidotetrahydrothien-3-yl)methyl]amino}-3-nitrophenyl)sulfonyl]-2-(1H-indol-5-yloxy)benzamide]	0.097	38	> 660
CC1(C)CCC(CN2CCN(c3ccc(C(=O)NS(=O)(=O)c4ccc(NCCN5CCNC5=O)c([N+](=O)[O-])c4)c(Oc4ccc5[nH]ccc5c4)c3)CC2)=C(c2ccc(Cl)cc2)C1 [Example 268, 4-(4-{[2-(4-chlorophenyl)-4,4-dimethylcyclohex-1-en-1-yl]methyl}piperazin-1-yl)-2-(1H-indol-5-yloxy)-N-[(3-nitro-4-{[2-(2-oxoimidazolidin-1-yl)ethyl]amino}phenyl)sulfonyl]benzamide]	0.092	68.2	145
O=C(NS(=O)(=O)c1ccc(NCC2CCOCC2)c([N+](=O)[O-])c1)c1ccc(N2CCN(CC3=C(c4ccc(Cl)cc4)CCC(O)C3)CC2)cc1Oc1ccc2[nH]ccc2c1 (stereo not drawn) [Example 248, 4-(4-{[2-(4-chlorophenyl)-5-hydroxycyclohex-1-en-1-yl]methyl}piperazin-1-yl)-2-(1H-indol-5-yloxy)-N-({3-nitro-4-[(tetrahydro-2H-pyran-4-ylmethyl)amino]phenyl}sulfonyl)benzamide]	0.013	49.8	155
